In ChEMBL document CHEMBL3046407, “Toxicity of monoterpenes against larvae and adults of Colorado potato beetle, Leptinotarsa decemlineata Say (Coleoptera: Chrysomelidae)” (2007):

Assays:
Format in all cases: functional
[1] = test system: Leptinotarsa decemlineata; assay: Insecticidal activity against second-instar larval stage of Leptinotarsa decemlineata infested potato leaves assessed as mortality at 10 ul after 24 hr (reference value: 3.3 +/- 3.3%)
[2] = test system: Leptinotarsa decemlineata; assay: Insecticidal activity against third-instar larval stage of Leptinotarsa decemlineata infested potato leaves assessed as mortality at 10 ul after 96 hr (reference value: 3.3 +/- 3.3%)
[3] = test system: Leptinotarsa decemlineata; assay: Insecticidal activity against second-instar larval stage of Leptinotarsa decemlineata infested potato leaves assessed as mortality at 10 ul after 96 hr (reference value: 3.3 +/- 3.3%)
[4] = test system: Leptinotarsa decemlineata; assay: Insecticidal activity against adult Leptinotarsa decemlineata infested potato leaves assessed as mortality at 20 ul after 96 hr relative to control
[5] = test system: Leptinotarsa decemlineata; assay: Insecticidal activity against adult Leptinotarsa decemlineata infested potato leaves assessed as mortality at 20 ul after 24 hr relative to control
[6] = test system: Leptinotarsa decemlineata; assay: Insecticidal activity against first-instar larval stage of Leptinotarsa decemlineata infested potato leaves assessed as mortality at 20 ul after 48 hr relative to control
[7] = test system: Leptinotarsa decemlineata; assay: Insecticidal activity against second-instar larval stage of Leptinotarsa decemlineata infested potato leaves assessed as mortality at 20 ul after 12 hr relative to control
[8] = test system: Leptinotarsa decemlineata; assay: Insecticidal activity against first-instar larval stage of Leptinotarsa decemlineata infested potato leaves assessed as mortality at 20 ul after 24 hr relative to control
[9] = test system: Leptinotarsa decemlineata; assay: Insecticidal activity against first-instar larval stage of Leptinotarsa decemlineata infested potato leaves assessed as mortality at 10 ul after 12 hr relative to control
[10] = test system: Leptinotarsa decemlineata; assay: Insecticidal activity against third-instar larval stage of Leptinotarsa decemlineata infested potato leaves assessed as mortality at 10 ul after 48 hr (reference value: 3.3 +/- 3.3%)
[11] = test system: Leptinotarsa decemlineata; assay: Insecticidal activity against first-instar larval stage of Leptinotarsa decemlineata infested potato leaves assessed as mortality at 10 ul after 24 hr relative to control
[12] = test system: Leptinotarsa decemlineata; assay: Insecticidal activity against adult Leptinotarsa decemlineata infested potato leaves assessed as mortality at 10 ul after 24 hr relative to control
[13] = test system: Leptinotarsa decemlineata; assay: Insecticidal activity against first-instar larval stage of Leptinotarsa decemlineata infested potato leaves assessed as mortality at 10 ul after 48 hr relative to control
[14] = test system: Leptinotarsa decemlineata; assay: Insecticidal activity against first-instar larval stage of Leptinotarsa decemlineata infested potato leaves assessed as mortality at 10 ul after 96 hr relative to control
[15] = test system: Leptinotarsa decemlineata; assay: Insecticidal activity against adult Leptinotarsa decemlineata infested potato leaves assessed as mortality at 20 ul after 48 hr relative to control
[16] = test system: Leptinotarsa decemlineata; assay: Insecticidal activity against second-instar larval stage of Leptinotarsa decemlineata infested potato leaves assessed as mortality at 20 ul after 24 hr (reference value: 3.3 +/- 3.3%)
[17] = test system: Leptinotarsa decemlineata; assay: Insecticidal activity against third-instar larval stage of Leptinotarsa decemlineata infested potato leaves assessed as mortality at 10 ul after 24 hr relative to control
[18] = test system: Leptinotarsa decemlineata; assay: Insecticidal activity against third-instar larval stage of Leptinotarsa decemlineata infested potato leaves assessed as mortality at 20 ul after 12 hr relative to control
[19] = test system: Leptinotarsa decemlineata; assay: Insecticidal activity against third-instar larval stage of Leptinotarsa decemlineata infested potato leaves assessed as mortality at 20 ul after 24 hr relative to control
[20] = test system: Leptinotarsa decemlineata; assay: Insecticidal activity against third-instar larval stage of Leptinotarsa decemlineata infested potato leaves assessed as mortality at 20 ul after 96 hr (reference value: 3.3 +/- 3.3%)
[21] = test system: Leptinotarsa decemlineata; assay: Insecticidal activity against first-instar larval stage of Leptinotarsa decemlineata infested potato leaves assessed as mortality at 20 ul after 12 hr relative to control
[22] = test system: Leptinotarsa decemlineata; assay: Insecticidal activity against adult Leptinotarsa decemlineata infested potato leaves assessed as mortality at 10 ul after 96 hr relative to control
[23] = test system: Leptinotarsa decemlineata; assay: Insecticidal activity against adult Leptinotarsa decemlineata infested potato leaves assessed as mortality at 20 ul after 12 hr relative to control
[24] = test system: Leptinotarsa decemlineata; assay: Insecticidal activity against adult Leptinotarsa decemlineata infested potato leaves assessed as mortality at 10 ul after 48 hr relative to control
[25] = test system: Leptinotarsa decemlineata; assay: Insecticidal activity against third-instar larval stage of Leptinotarsa decemlineata infested potato leaves assessed as mortality at 20 ul after 48 hr (reference value: 3.3 +/- 3.3%)
[26] = test system: Leptinotarsa decemlineata; assay: Insecticidal activity against second-instar larval stage of Leptinotarsa decemlineata infested potato leaves assessed as mortality at 20 ul after 48 hr (reference value: 3.3 +/- 3.3%)
[27] = test system: Leptinotarsa decemlineata; assay: Insecticidal activity against first-instar larval stage of Leptinotarsa decemlineata infested potato leaves assessed as mortality at 20 ul after 96 hr relative to control
[28] = test system: Leptinotarsa decemlineata; assay: Insecticidal activity against adult Leptinotarsa decemlineata infested potato leaves assessed as mortality at 10 ul after 12 hr relative to control
[29] = test system: Leptinotarsa decemlineata; assay: Insecticidal activity against second-instar larval stage of Leptinotarsa decemlineata infested potato leaves assessed as mortality at 10 ul after 48 hr (reference value: 3.3 +/- 3.3%)
[30] = test system: Leptinotarsa decemlineata; assay: Insecticidal activity against third-instar larval stage of Leptinotarsa decemlineata infested potato leaves assessed as mortality at 10 ul after 12 hr relative to control
[31] = test system: Leptinotarsa decemlineata; assay: Insecticidal activity against second-instar larval stage of Leptinotarsa decemlineata infested potato leaves assessed as mortality at 20 ul after 96 hr (reference value: 3.3 +/- 3.3%)
[32] = test system: Leptinotarsa decemlineata; assay: Insecticidal activity against second-instar larval stage of Leptinotarsa decemlineata infested potato leaves assessed as mortality at 10 ul after 12 hr relative to control

| Compound | mortality [1] | mortality [2] | mortality [3] | mortality [4] | mortality [5] | mortality [6] | mortality [7] | mortality [8] | mortality [9] | mortality [10] | mortality [11] | mortality [12] | mortality [13] | mortality [14] | mortality [15] | mortality [16] | mortality [17] | mortality [18] | mortality [19] | mortality [20] | other results |
| --- | --- | --- | --- | --- | --- | --- | --- | --- | --- | --- | --- | --- | --- | --- | --- | --- | --- | --- | --- | --- | --- |
| CC1=CCC(C(C)C)=CC1 [GAMMA-TERPINENE] | 100% | 33.3% | 100% | 100% | 96.7% | 100% | 100% | 100% | 43.3% | 30% | 100% | 40% | 100% | 100% | 100% | 100% | 26.7% | 10% | 16.7% | 50% | mortality [21]: 100%; mortality [22]: 90%; mortality [23]: 46.7%; mortality [24]: 66.7%; mortality [25]: 33.3%; mortality [26]: 100%; mortality [27]: 100%; mortality [28]: 20%; mortality [29]: 100%; mortality [30]: 16.7%; mortality [31]: 100%; mortality [32]: 90% |
| CC1=CCC2C(C1)C2(C)C (centres undefined) [CARENE] | 73.3% | 100% | 100% | 86.7% | 80% | 86.7% | 76.7% | 70% | 36.7% | 100% | 63.3% | 73.3% | 86.7% | 100% | 86.7% | 86.7% | 100% | 100% | 100% | 100% | mortality [21]: 56.7%; mortality [22]: 80%; mortality [23]: 50%; mortality [24]: 80%; mortality [25]: 100%; mortality [26]: 93.3%; mortality [27]: 86.7%; mortality [28]: 36.7%; mortality [29]: 100%; mortality [30]: 100%; mortality [31]: 93.3%; mortality [32]: 46.7% |
| C=CC(C)CCC=C(C)C (stereo not drawn) [BETA-CITRONELLENE] | 96.7% | 100% | 100% | 90% | 76.7% | 100% | 66.7% | 100% | 30% | 100% | 86.7% | 73.3% | 100% | 100% | 83.3% | 100% | 93.3% | 50% | 80% | 93.3% | mortality [21]: 76.7%; mortality [22]: 76.7%; mortality [23]: 53.3%; mortality [24]: 73.3%; mortality [25]: 93.3%; mortality [26]: 100%; mortality [27]: 100%; mortality [28]: 40%; mortality [29]: 100%; mortality [30]: 80%; mortality [31]: 100%; mortality [32]: 43.3% |
| C=C(C)C1CC=C(C)C(=O)C1 (centres undefined) [CARVONE] | 53.3% | 16.7% | 63.3% | 100% | 36.7% | 43.3% | 53.3% | 30% | 16.7% | 13.3% | 43.3% | 26.7% | 43.3% | 63.3% | 100% | 83.3% | 13.3% | 23.3% | 86.7% | 90% | mortality [21]: 10%; mortality [22]: 93.3%; mortality [23]: 3.3%; mortality [24]: 66.7%; mortality [25]: 90%; mortality [26]: 86.7%; mortality [27]: 56.7%; mortality [28]: 0%; mortality [29]: 63.3%; mortality [30]: 6.7%; mortality [31]: 90%; mortality [32]: 33.3% |
| C=C(C)[C@@H]1CC[C@@H](C)C(=O)C1 [DIHYDROCARVONE] | 63.3% | 23.3% | 83.3% | 80% | 23.3% | 70% | 36.7% | 50% | 0% | 16.7% | 33.3% | 30% | 33.3% | 40% | 63.3% | 83.3% | 16.7% | 16.7% | 46.7% | 76.7% | mortality [21]: 26.7%; mortality [22]: 63.3%; mortality [23]: 0%; mortality [24]: 53.3%; mortality [25]: 60%; mortality [26]: 86.7%; mortality [27]: 80%; mortality [28]: 6.7%; mortality [29]: 76.7%; mortality [30]: 0%; mortality [31]: 100%; mortality [32]: 23.3% |
| CC(=O)OC/C=C(\C)CCC=C(C)C [GERANYL ACETATE] | 3.3% | 13.3% | 20% | 26.7% | 10% | 10% | 6.7% | 6.7% | 0% | 13.3% | 0% | 3.3% | 0% | 6.7% | 16.7% | 10% | 10% | 6.7% | 16.7% | 16.7% | mortality [21]: 0%; mortality [22]: 10%; mortality [23]: 3.3%; mortality [24]: 10%; mortality [25]: 16.7%; mortality [26]: 23.3%; mortality [27]: 16.7%; mortality [28]: 0%; mortality [29]: 20%; mortality [30]: 6.7%; mortality [31]: 23.3%; mortality [32]: 3.3% |
| C=C(C)C1CCC2(C)OC2C1 (centres undefined) [LIMONENE OXIDE] | 73.3% | 46.7% | 90% | 56.7% | 20% | 100% | 60% | 93.3% | 26.7% | 43.3% | 53.3% | 16.7% | 80% | 93.3% | 40% | 93.3% | 23.3% | 13.3% | 33.3% | 56.7% | mortality [21]: 70%; mortality [22]: 30%; mortality [23]: 16.7%; mortality [24]: 20%; mortality [25]: 46.7%; mortality [26]: 93.3%; mortality [27]: 100%; mortality [28]: 10%; mortality [29]: 83.3%; mortality [30]: 13.3%; mortality [31]: 96.7%; mortality [32]: 30% |
